Km data for 1 molecule are collected here from publication PMC5320487, “Intrinsic Peroxidase-like Activity of Ficin” (Scientific Reports, 2017).

The subject of the experiment is Ficin. The experiment can be described thus: absorbance at […] nm, steady-state kinetics, Michaelis-Menten fit. The format is biochemical. Particulars: peroxidase-like activity; 0.80 mM H2O2, 20 mM phosphate buffer pH 5.0, 35 °C; ping-pong.

Each structure is given as a SMILES string.

Regarding `Cc1cc(-c2cc(C)c(N)c(C)c2)cc(C)c1N` [TMB], the Michaelis-Menten constant (Km) was 0.19 ± 0.012 mM.
